Source: patent publication US11986532B2 (Arvinas Operations, Inc., priority 2021, dated 2024)
Like-named read-outs stand apart in the source and are kept apart here.

Biological target: T1, BCL6 (Homo sapiens, UniProt P41182)
T1 construct: endogenous in cells; host or cells: T47D breast cancer epithelial cells
Assay: Immunofluorescence protocol for high content imaging of BCL6 (degradation) in T47D cells, 3 days compound treatment
Assay type: cell-based
Conditions: for DC50: read-out: Mean DC50 (nM)* category; for Dmax: read-out: Mean Dmax (%)** category
Summary of the method: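 T47D cells in RPMI1640-10% FBS were treated with an 11-point 3-fold dilution series (final top 0.1 or 1 μM) for 3 days at 37° C. After PFA fixation and Triton permeabilization, cells were immunostained with rabbit anti-BCL6 (1:300, overnight 4° C), Alexa-488 secondary, CellMask-647 and Hoechst, then imaged at 10×, 4 fields/well.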

[1] = T47D cells, 3 days compound treatment

Row | Structure (SMILES) | DC50 [1] [nM] | Dmax [1] [%] | Dmax (T47D) [%] | DC50 [nM]
1 | CNC(=O)COc1cc2cc(Nc3nc(N4CCC(CN5CCC6(CC5)CC5(CN(c7ccc8c(c7)CN(C7CCC(=O)NC7=O)C8=O)C5)C6)CC4)ncc3Cl)ccc2n(C(C)C)c1=O (stereo not shown) [Compound 168, 2-{[6-({5-chloro-2-[4-({2-[2-(2,6-dioxopiperidin-3-yl)-1-oxo-2,3-dihydro-1H-isoindol-5-yl]-2,9-diazadispiro[3.1.5^6.1^4]dodecan-9-yl}methyl)piperidin-1-yl]pyrimidin-4-yl}amino)-2-oxo-1-(propan-2-yl)-1,2-dihydroquinolin-3-yl]oxy}-N-methylacetamide] | < 10 | 50 to 70 |  | 
2 | CNC(=O)COc1cc2cc(Nc3nc(N4CCN(CC5CCC6(CC5)CN(c5c(OC)ccc7c5C(=O)N(C5CCC(=O)NC5=O)C7=O)C6)CC4)ncc3Cl)ccc2n(C(C)C)c1=O (stereo not shown) [Compound 9, 2-{[6-({5-chloro-2-[4-({2-[2-(2,6-dioxopiperidin-3-yl)-5-methoxy-1,3-dioxo-2,3-dihydro-1H-isoindol-4-yl]-2-azaspiro[3.5]nonan-7-yl}methyl)piperazin-1-yl]pyrimidin-4-yl}amino)-2-oxo-1-(propan-2-yl)-1,2-dihydroquinolin-3-yl]oxy}-N-methylacetamide] | < 10 | < 50 |  | 
3 | CNC(=O)COc1cc2cc(Nc3nc(N4CCC(CN5CC6(CCN(c7cc8c(cc7F)C(=O)N(C7CCC(=O)NC7=O)C8)CC6)C5)CC4)ncc3Cl)ccc2n(C(C)C)c1=O (stereo not shown) [Compound 84] | < 10 | ≥ 70 |  | 
4 | CNC(=O)COc1cc2cc(Nc3nc(N4CCC5(CCN(CC6(F)CCN(c7cc(F)cc8c7CN(C7CCC(=O)NC7=O)C8=O)CC6)CC5)CC4)ncc3Cl)ccc2n(C(C)C)c1=O (stereo not shown) [Compound 109, 2-{[6-({5-chloro-2-[9-({1-[2-(2,6-dioxopiperidin-3-yl)-6-fluoro-1-oxo-2,3-dihydro-1H-isoindol-4-yl]-4-fluoropiperidin-4-yl}methyl)-3,9-diazaspiro [5.5]undecan-3-yl]pyrimidin-4-yl}amino)-2-oxo-1-(propan-2-yl)-1,2-dihydroquinolin-3-yl]oxy}-N-methylacetamide] | < 10 | 50 to 70 |  | 
5 | CNC(=O)COc1cc2cc(Nc3nc(N4CCC(O[C@H]5C[C@H](N6C[C@@H](C)N(c7ccc8c(c7C)C(=O)N(C7CCC(=O)NC7=O)C8=O)C[C@@H]6C)C5)CC4)ncc3Cl)ccc2n(C(C)C)c1=O (stereo partly drawn) [Compound 207, 2-({6-[(5-chloro-2-{4-[(1r,3r)-3-[(2S,5R)-4-[2-(2,6-dioxopiperidin-3-yl)-4-methyl-1,3-dioxo-2,3-dihydro-1H-isoindol-5-yl]-2,5-dimethylpiperazin-1-yl]cyclobutoxy]piperidin-1-yl}pyrimidin-4-yl)amino]-2-oxo-1-(propan-2-yl)-1,2-dihydroquinolin-3-yl}oxy)-N-methylacetamide] | < 10 | ≥ 70 |  | 
6 | CNC(=O)COc1cc2cc(Nc3nc(N4CCC(O[C@H]5C[C@H](N6CC[C@@H](c7ccc8c(c7F)CN([C@@H]7CCC(=O)NC7=O)C8=O)C(C)(C)C6)C5)CC4)ncc3Cl)ccc2n(C(C)C)c1=O [Compound 396, 2-({6-[(5-chloro-2-{4-[(1r,3r)-3-[(4R)-4-{2-[(3R)-2,6-dioxopiperidin-3-yl]-4-fluoro-1-oxo-2,3-dihydro-1H-isoindol-5-yl}-3,3-dimethylpiperidin-1-yl]cyclobutoxy]piperidin-1-yl}pyrimidin-4-yl)amino]-2-oxo-1-(propan-2-yl)-1,2-dihydroquinolin-3-yl}oxy)-N-methylacetamide] |  |  | ≥ 70 | < 10
7 | CNC(=O)COc1cc2cc(Nc3nc(N4CCC(O[C@H]5C[C@H](N6CC[C@H](c7ccc8c(c7)CN(C7CCC(=O)NC7=O)C8=O)[C@H](F)C6)C5)CC4)ncc3Cl)ccc2n(C(C)C)c1=O (mixture of isomers) [Compound 131] | < 10 | 50 to 70 |  | 
8 | CNC(=O)COc1cc2cc(Nc3nc(N4CCC(O[C@H]5C[C@H](N6CCC7(CCN(c8ccc9c(c8)C(=O)N(C8CCC(=O)NC8=O)C9=O)C7)C6)C5)CC4)ncc3Cl)ccc2n(C(C)C)c1=O (stereo partly shown) [Compound 339, 2-({6-[(5-chloro-2-{4-[(1r,3r)-3-{7-[2-(2,6-dioxopiperidin-3-yl)-1,3-dioxo-2,3-dihydro-1H-isoindol-5-yl]-2,7-diazaspiro[4.4]nonan-2-yl}cyclobutoxy]piperidin-1-yl}pyrimidin-4-yl)amino]-2-oxo-1-(propan-2-yl)-1,2-dihydroquinolin-3-yl}oxy)-N-methylacetamide] |  |  | 50 to 70 | < 10
9 | CNC(=O)COc1cc2cc(Nc3nc(N4CCC(O[C@H]5C[C@H](N6CC7(CCN(c8ccc9c(c8F)CN(C8CCC(=O)NC8=O)C9=O)CC7)C6)C5)CC4)ncc3Cl)ccc2n(C(C)C)c1=O (stereo partly shown) [Compound 393, 2-({6-[(5-chloro-2-{4-[(1r,3r)-3-{7-[2-(2,6-dioxopiperidin-3-yl)-4-fluoro-1-oxo-2,3-dihydro-1H-isoindol-5-yl]-2,7-diazaspiro[3.5]nonan-2-yl}cyclobutoxy]piperidin-1-yl}pyrimidin-4-yl)amino]-2-oxo-1-(propan-2-yl)-1,2-dihydroquinolin-3-yl}oxy)-N-methylacetamide] |  |  | ≥ 70 | < 10
10 | CNC(=O)COc1cc2cc(Nc3nc(N4CCC(O[C@H]5C[C@H](N6CC7CCC(C6)N7c6ccc7c(c6)CN(C6CCC(=O)NC6=O)C7=O)C5)CC4)ncc3Cl)ccc2n(C(C)C)c1=O (stereo partly shown) [Compound 371, 2-({6-[(5-chloro-2-{4-[(1r,3r)-3-{8-[2-(2,6-dioxopiperidin-3-yl)-1-oxo-2,3-dihydro-1H-isoindol-5-yl]-3,8-diazabicyclo[3.2.1]octan-3-yl}cyclobutoxy]piperidin-1-yl}pyrimidin-4-yl)amino]-2-oxo-1-(propan-2-yl)-1,2-dihydroquinolin-3-yl}oxy)-N-methylacetamide] |  |  | < 50 | < 10
11 | CNC(=O)COc1cc2cc(Nc3nc(N4CCOC5(CN(CC6CCN(c7cccc8c7C(=O)N(C7CCC(=O)NC7=O)C8=O)CC6)C5)C4)ncc3Cl)ccc2n(C(C)C)c1=O (stereo not shown) [Compound 143, 2-{[6-({5-chloro-2-[2-({1-[2-(2,6-dioxopiperidin-3-yl)-1,3-dioxo-2,3-dihydro-1H-isoindol-4-yl]piperidin-4-yl}methyl)-5-oxa-2,8-diazaspiro[3.5]nonan-8-yl]pyrimidin-4-yl}amino)-2-oxo-1-(propan-2-yl)-1,2-dihydroquinolin-3-yl]oxy}-N-methylacetamide] | ≥ 100 |  |  | 
12 | CNC(=O)COc1cc2cc(Nc3nc(N4CCC(O[C@H]5C[C@H](N6CCN(c7ccc8c(c7)C(=O)N(C7CCC(=O)NC7=O)C8=O)C(C)(C)C6)C5)CC4)ncc3Cl)ccc2n(C(C)C)c1=O (stereo partly shown) [Compound 367, 2-({6-[(5-chloro-2-{4-[(1r,3r)-3-{4-[2-(2,6-dioxopiperidin-3-yl)-1,3-dioxo-2,3-dihydro-1H-isoindol-5-yl]-3,3-dimethylpiperazin-1-yl}cyclobutoxy]piperidin-1-yl}pyrimidin-4-yl)amino]-2-oxo-1-(propan-2-yl)-1,2-dihydroquinolin-3-yl}oxy)-N-methylacetamide] |  |  | ≥ 70 | 10 to 50
13 | CNC(=O)COc1cc2cc(Nc3nc(N4CCC(F)(CN5CCC6(CC5)CN(c5ccc7c(c5)C(=O)N(C5CCC(=O)NC5=O)C7=O)C6)CC4)ncc3Cl)ccc2n(C(C)C)c1=O (stereo not shown) [Compound 43, 2-{[6-({5-chloro-2-[4-({2-[2-(2,6-dioxopiperidin-3-yl)-1,3-dioxo-2,3-dihydro-1H-isoindol-5-yl]-2,7-diazaspiro [3.5]nonan-7-yl}methyl)-4-fluoropiperidin-1-yl]pyrimidin-4-yl}amino)-2-oxo-1-(propan-2-yl)-1,2-dihydroquinolin-3-yl]oxy}-N-methylacetamide] | 10 to 50 | 50 to 70 |  | 
14 | CNC(=O)COc1cc2cc(Nc3nc(N4CCC(CN5CCC6(CC5)CN(c5cc(OC)c7c(c5)C(=O)N(C5CCC(=O)NC5=O)C7=O)C6)CC4)ncc3Cl)ccc2n(C(C)C)c1=O (stereo not shown) [Compound 83, 2-{[6-({5-chloro-2-[4-({2-[2-(2,6-dioxopiperidin-3-yl)-7-methoxy-1,3-dioxo-2,3-dihydro-1H-isoindol-5-yl]-2,7-diazaspiro [3.5]nonan-7-yl}methyl)piperidin-1-yl]pyrimidin-4-yl}amino)-2-oxo-1-(propan-2-yl)-1,2-dihydroquinolin-3-yl]oxy}-N-methylacetamide] | < 10 | 50 to 70 |  | 
15 | CNC(=O)COc1cc2cc(Nc3nc(N4CCC(O[C@H]5C[C@H](N6CC=C(c7ccc8c(c7F)CN(C7CCC(=O)NC7=O)C8=O)CC6)C5)CC4)ncc3Cl)ccc2n(C(C)C)c1=O (stereo partly shown) [Compound 426, 2-({6-[(5-chloro-2-{4-[(1r,3r)-3-{4-[2-(2,6-dioxopiperidin-3-yl)-4-fluoro-1-oxo-2,3-dihydro-1H-isoindol-5-yl]-1,2,3,6-tetrahydropyridin-1-yl}cyclobutoxy]piperidin-1-yl}pyrimidin-4-yl)amino]-2-oxo-1-(propan-2-yl)-1,2-dihydroquinolin-3-yl}oxy)-N-methylacetamide] |  |  | ≥ 70 | < 10
16 | CNC(=O)COc1cc2cc(Nc3nc(N4CCC(O[C@H]5C[C@H](N6CCN(c7ccc8c(n7)CN(C7CCC(=O)NC7=O)C8=O)[C@H](C)C6)C5)CC4)ncc3Cl)ccc2n(C(C)C)c1=O (stereo partly drawn) [Compound 198, 2-({6-[(5-chloro-2-{4-[(1r,3r)-3-[(3R)-4-[6-(2,6-dioxopiperidin-3-yl)-5-oxo-5H,6H,7H-pyrrolo[3,4-b]pyridin-2-yl]-3-methylpiperazin-1-yl]cyclobutoxy]piperidin-1-yl}pyrimidin-4-yl)amino]-2-oxo-1-(propan-2-yl)-1,2-dihydroquinolin-3-yl}oxy)-N-methylacetamide] | < 10 | ≥ 70 |  | 
